According to BindingDB's records for doi:10.1021/cb400100g (University of Massachusetts Medical School, 2013):

Target: Genome polyprotein (Hepatitis C virus genotype 1a (isolate H77), UniProt P27958)
Experiment: Enzyme Inhibition Assay
Method: NS3/4A protease was preincubated with increasing concentration of drugs in protease reaction buffer for 1 hour. Inhibition assays were performed in a reaction volume of 60μL. The reaction was initiated by the rapid injection of 5μL of HCV NS3/4A protease substrate to a final concentration of 200nM.

Chain of Genome polyprotein (P27958 1027-1657 limits assumed): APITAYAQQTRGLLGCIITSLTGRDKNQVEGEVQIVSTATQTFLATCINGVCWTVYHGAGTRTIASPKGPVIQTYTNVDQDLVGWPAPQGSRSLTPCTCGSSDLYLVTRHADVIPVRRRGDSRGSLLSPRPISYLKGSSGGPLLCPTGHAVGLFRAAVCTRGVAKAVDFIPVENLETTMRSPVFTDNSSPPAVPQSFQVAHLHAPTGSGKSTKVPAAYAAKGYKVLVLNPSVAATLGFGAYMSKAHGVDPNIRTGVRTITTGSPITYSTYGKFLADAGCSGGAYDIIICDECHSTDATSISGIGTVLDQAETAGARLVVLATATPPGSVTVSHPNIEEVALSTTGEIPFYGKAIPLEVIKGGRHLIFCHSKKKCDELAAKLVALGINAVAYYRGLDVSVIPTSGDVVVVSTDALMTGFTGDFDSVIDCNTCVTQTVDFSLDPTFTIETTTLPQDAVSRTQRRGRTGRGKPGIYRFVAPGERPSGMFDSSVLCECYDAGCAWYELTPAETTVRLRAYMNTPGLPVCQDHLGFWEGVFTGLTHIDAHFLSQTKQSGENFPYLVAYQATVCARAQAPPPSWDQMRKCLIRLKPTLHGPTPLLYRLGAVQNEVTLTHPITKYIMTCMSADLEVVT
Chain of Genome polyprotein (P27958 1658-1711 limits assumed): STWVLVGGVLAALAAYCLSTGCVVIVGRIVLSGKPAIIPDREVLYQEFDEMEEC

SMILES	Ki [nM]
CC[C@@H]1C[C@]1(NC(=O)[C@@H]1C[C@@H]2CN1C(=O)[C@H](C(C)(C)C)NC(=O)OCC(C)(C)CCCCc1cccc3c1CN(C3)C(=O)O2)C(=O)NS(=O)(=O)C1CC1 [Vaniprevir]	0.46
C=C[C@@H]1C[C@]1(NC(=O)C1C[C@@H]2CN1C(=O)[C@H](C(C)(C)C)NC(=O)OCC(C)(C)CCCCc1cccc3c1CN(C3)C(=O)O2)C(=O)NS(=O)(=O)C1CC1 (stereo partly drawn) [Dan-mcP2P4]	0.22
C=C[C@@H]1C[C@]1(NC(=O)[C@@H]1CC2CN1C(=O)[C@H](C(C)(C)C)NC(=O)O[C@@H]1C[C@H]1CCCCCc1nc3ccc(OC)cc3nc1O2)C(=O)NS(=O)(=O)C1CC1 (stereo partly drawn) [MK-5172]	0.06
